Measurements published in US9255090B2, “Heterocyclyl derivatives and their use as prostaglandin D2 receptor modulators” (Actelion Pharmaceuticals Ltd., priority 2012, dated 2016).
Structures can show the parent of a compound that is named as a salt.

Target: hCRTH2 receptor (Homo sapiens (Human), UniProt Q9Y5Y4)
Assay: hCRTH2 receptor membranes radioligand (3H-PGD2) displacement assay
Type: binding
Settings: 3H-PGD2 radioligand displacement, HEK293-hCRTH2 membranes
Description: Biological Assays: Preparation of hCRTH2 Receptor Membranes and Radioligand Displacement Assay:
First, recombinant HEK293-hCRTH2 cells were detached from culture plates into 5 ml buffer A/plate (Buffer A: 5 mM Tris, 1 mM MgCl2-6H2O pH=7.4) using a rubber policeman. Cells were then transferred into centrifugation tubes and centrifuged for 5 min at 400 g. The cell pellet was resuspended in the same buffer and tubes were frozen at −80° C. Cells were thawed and membrane fragments were generated by homogenization using a polytron homogenizer (30 seconds). The membrane fragments were then centrifuged at 3000 g for 20 minutes and resuspended in buffer C (Buffer C: 75 mM Tris, 25 mM MgCl2, 250 mM Saccharose pH 7.4). Aliquots of membrane fragments were stored at −20° C.
Binding assay was performed in a final assay volume of 250 μl. First, 25 μl of test compound, previously diluted in Binding-Buffer (Binding-Buffer: 50 mM Tris-Base, 100 mM NaCl, 1 mM EDTA, 0.1% BSA (protease free), 0.01% NaN3, 10 mM MnCl2, pH 7.0) was placed into each well. After addition of 75 μl Binding-Buffer, 50 μl of the radioligand ^3H-PGD2 (at 2.5 nM (220.000 dpm/well) from ANAWA ART0662) was added to each well. Binding assay was started by addition of 100 μl CRTH2 membrane fragments, reaching a final concentration of 20 μg/well. For non-specific binding, PGD2 was added to the reaction mixture to […] final concentration. This assay mix was incubated for 90 minutes at room temperature and then filtered through a GF/C filter 96-well plate which was pre-soaked for 3 hours in 0.5% polyethyleneimine (PEI). The filter-wells were washed three times with ice cold Binding-Buffer. Then, 40 μl of Microscint-40 (Packard) was added to each well and the retained radioactivity quantified in a Topcount (Packard).

Chain of hCRTH2 receptor (Q9Y5Y4 whole entry): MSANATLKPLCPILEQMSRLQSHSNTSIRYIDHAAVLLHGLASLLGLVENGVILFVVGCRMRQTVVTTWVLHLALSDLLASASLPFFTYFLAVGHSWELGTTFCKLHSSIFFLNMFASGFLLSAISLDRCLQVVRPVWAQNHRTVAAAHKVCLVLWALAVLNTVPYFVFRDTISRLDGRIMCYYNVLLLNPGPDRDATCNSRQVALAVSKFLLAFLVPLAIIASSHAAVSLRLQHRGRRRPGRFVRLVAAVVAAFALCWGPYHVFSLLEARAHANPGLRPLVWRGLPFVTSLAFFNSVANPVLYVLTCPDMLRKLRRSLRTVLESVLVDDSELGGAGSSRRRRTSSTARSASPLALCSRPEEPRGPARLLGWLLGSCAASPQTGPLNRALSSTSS

Row | IC50 | Compound
1 | 0.008 µM | CCOc1cc(CC(=O)O)ccc1-c1ccc(F)c2c1CN(C(=O)OCc1ncc(C)cc1F)CC2 [Example 387, 8-(4-Carboxymethyl-2-ethoxy-phenyl)-5-fluoro-3,4-dihydro-1H-isoquinoline-2-carboxylic acid 3-fluoro-5-methyl-pyridin-2-ylmethyl ester]
2 | 0.0341 µM | COc1ccc(CC(=O)O)cc1-c1ccc(F)c2c1CN(C(=O)OCc1cncnc1)CC2 [Example 152, 8-(5-Carboxymethyl-2-methoxy-phenyl)-5-fluoro-3,4-dihydro-1H-isoquinoline-2-carboxylic acid pyrimidin-5-ylmethyl ester]
3 | 0.0023 µM | CCOc1cc(CC(=O)O)ccc1-c1ccc(F)c2c1CN(C(=O)/C=C/c1ccccn1)CC2 [Example 338, {3-Ethoxy-4-[5-fluoro-2-((E)-3-pyridin-2-yl-acryloyl)-1,2,3,4-tetrahydro-isoquinolin-8-yl]-phenyl}-acetic acid]
4 | 0.575 µM | O=C(O)Cc1ccc(Cl)cc1-c1ccc(F)c2c1CN(C(=O)OCc1ccccc1)CC2 [Example 416, 8-(2-Carboxymethyl-5-chloro-phenyl)-5-fluoro-3,4-dihydro-1H-isoquinoline-2-carboxylic acid benzyl ester]
5 | 0.0148 µM | O=C(O)Cc1ccc(OCC(F)(F)F)c(-c2ccc(F)c3c2CN(C(=O)CC2CCOc4ccccc42)CC3)c1 (racemic) [Example 299]
6 | 0.0025 µM | CCOc1cc(CC(=O)O)ccc1-c1ccc(F)c2c1CN(C(=O)NCc1ccccc1OC)CC2 [Example 445, {3-Ethoxy-4-[5-fluoro-2-(2-methoxy-benzylcarbamoyl)-1,2,3,4-tetrahydro-isoquinolin-8-yl]-phenyl}-acetic acid]
7 | 0.0103 µM | CC(C)Oc1cc(CC(=O)O)ccc1-c1ccc(F)c2c1CN(C(=O)C[C@H](C)c1ccccc1)CC2 [Example 355, {4-[5-Fluoro-2-((S)-3-phenyl-butyryl)-1,2,3,4-tetrahydro-isoquinolin-8-yl]-3-isopropoxy-phenyl}-acetic acid]
8 | 0.0149 µM | O=C(O)Cc1ccc(OC2CC2)c(-c2ccc(F)c3c2CN(C(=O)OCc2ccccc2)CC3)c1 [Example 430, 8-(5-Carboxymethyl-2-cyclopropoxy-phenyl)-5-fluoro-3,4-dihydro-1H-isoquinoline-2-carboxylic acid benzyl ester]
9 | 0.0196 µM | COc1ccccc1CNC(=O)N1CCc2c(F)ccc(-c3cc(CC(=O)O)ccc3OC)c2C1 [Example 135, {3-[5-Fluoro-2-(2-methoxy-benzylcarbamoyl)-1,2,3,4-tetrahydro-isoquinolin-8-yl]-4-methoxy-phenyl}-acetic acid]
10 | 0.0024 µM | CCOc1ccc(CC(=O)O)cc1-c1ccc(F)c2c1CN(C(=O)CC1CC(C)(C)Oc3ncccc31)CC2 (racemic) [Example 284]
11 | 0.043 µM | COc1ccc(CC(=O)O)cc1-c1ccc(F)c2c1CCN(C(=O)CCOc1ccccc1)C2 [Example 102, {3-[8-Fluoro-2-(3-phenoxy-propionyl)-1,2,3,4-tetrahydro-isoquinolin-5-yl]-4-methoxy-phenyl}-acetic acid]
12 | 0.0037 µM | CC(C)Oc1cc(CC(=O)O)ccc1-c1ccc(F)c2c1CN(C(=O)CC(C)c1ccccn1)CC2 (racemic) [Example 346]
13 | 0.0009 µM | CCOc1cc(CC(=O)O)ccc1-c1ccc(F)c2c1CN(C(=O)CC1COc3ccccc3C1)CC2 (racemic) [Example 324]
14 | 0.0692 µM | COc1ccc(CC(=O)O)cc1-c1ccc(F)c2c1CCN(C(=O)COCc1ccccc1Cl)C2 [Example 103, (3-{2-[2-(2-Chloro-benzyloxy)-acetyl]-8-fluoro-1,2,3,4-tetrahydro-isoquinolin-5-yl}-4-methoxy-phenyl)-acetic acid]
15 | 0.00954 µM | COc1ccc(CC(=O)O)cc1-c1ccc(F)c2c1CN(C(=O)CCn1ncc3cc(F)ccc31)CC2 [Example 126, (3-{5-Fluoro-2-[3-(5-fluoro-indazol-1-yl)-propionyl]-1,2,3,4-tetrahydro-isoquinolin-8-yl}-4-methoxy-phenyl)-acetic acid]
16 | 0.0163 µM | CS(=O)(=O)c1ccc(CC(=O)O)cc1-c1ccc(F)c2c1CN(C(=O)OCc1ccccc1)CC2 [Example 20, 8-(5-Carboxymethyl-2-methanesulfonyl-phenyl)-5-fluoro-3,4-dihydro-1H-isoquinoline-2-carboxylic acid benzyl ester]

Row | IC50 | Compound
17 | 0.0636 µM | CCC(CC(=O)N1CCc2c(F)ccc(-c3cc(CC(=O)O)ccc3OC)c2C1)c1ccccc1 (racemic) [Example 268]
18 | 0.484 µM | COc1ccc(CC(=O)O)cc1-c1ccc(F)c2c1CN(C(=O)CC1CCCc3ccncc31)CC2 (racemic) [Example 247, hydrochloride]
19 | 0.00069 µM | COc1cc(CC(=O)O)ccc1-c1ccc(F)c2c1CN(C(=O)CCOc1ccc(F)cc1)CC2 [Example 192, (4-{5-Fluoro-2-[3-(4-fluoro-phenoxy)-propionyl]-1,2,3,4-tetrahydro-isoquinolin-8-yl}-3-methoxy-phenyl)-acetic acid]
20 | 0.0038 µM | CCOc1cc(CC(=O)O)ccc1-c1ccc(F)c2c1CN(C(=O)NCc1ccccc1F)CC2 [Example 440, {3-Ethoxy-4-[5-fluoro-2-(2-fluoro-benzylcarbamoyl)-1,2,3,4-tetrahydro-isoquinolin-8-yl]-phenyl}-acetic acid]
21 | 0.0053 µM | CCOc1ccc(CC(=O)O)cc1-c1ccc(F)c2c1CN(C(=O)NCc1ccccc1F)CC2 [Example 432, {4-Ethoxy-3-[5-fluoro-2-(2-fluoro-benzylcarbamoyl)-1,2,3,4-tetrahydro-isoquinolin-8-yl]-phenyl}-acetic acid]
22 | 0.113 µM | COc1ccc(CC(=O)O)cc1-c1c(F)ccc2c1CN(C(=O)OCc1ccccc1)CC2 [Example 33, 8-(5-Carboxymethyl-2-methoxy-phenyl)-7-fluoro-3,4-dihydro-1H-isoquinoline-2-carboxylic acid benzyl ester]
23 | 0.054 µM | COc1ccc2onc(CC(=O)N3CCc4c(F)ccc(-c5cc(CC(=O)O)ccc5OC)c4C3)c2c1 [Example 49, (3-{5-Fluoro-2-[2-(5-methoxy-benzo[d]isoxazol-3-yl)-acetyl]-1,2,3,4-tetrahydro-isoquinolin-8-yl}-4-methoxy-phenyl)-acetic acid]
24 | 0.414 µM | COc1ccc(CC(=O)O)cc1-c1ccc(F)c2c1CN(C(=O)CC1(c3ccc(F)cc3)CCC1)CC2 [Example 251, [3-(5-Fluoro-2-{2-[1-(4-fluoro-phenyl)-cyclobutyl]-acetyl}-1,2,3,4-tetrahydro-isoquinolin-8-yl)-4-methoxy-phenyl]-acetic acid]
25 | 0.013 µM | COc1ccc(CC(=O)O)cc1-c1ccc(F)c2c1CN(C(=O)NCCc1ccccc1)CC2 [Example 133, [3-(5-Fluoro-2-phenethylcarbamoyl-1,2,3,4-tetrahydro-isoquinolin-8-yl)-4-methoxy-phenyl]-acetic acid]
26 | 0.0615 µM | COc1ccc(CC(=O)O)cc1-c1ccc(Cl)c2c1CN(C(=O)CCN1CCc3ccccc31)CC2 [Example 78, {3-[5-Chloro-2-(3-2,3-dihydro-indol-1-yl-propionyl)-1,2,3,4-tetrahydro-isoquinolin-8-yl]-4-methoxy-phenyl}-acetic acid]
27 | 0.0695 µM | O=C(O)Cc1cccc(-c2ccc(F)c3c2CN(C(=O)OCc2ccccc2)CC3)c1 [Example 24, 8-(3-Carboxymethyl-phenyl)-5-fluoro-3,4-dihydro-1H-isoquinoline-2-carboxylic acid benzyl ester]
28 | 0.0017 µM | COc1cc(CC(=O)O)cc(OC)c1-c1ccc(F)c2c1CN(C(=O)OCc1ccccc1)CC2 [Example 218, 8-(4-Carboxymethyl-2,6-dimethoxy-phenyl)-5-fluoro-3,4-dihydro-1H-isoquinoline-2-carboxylic acid benzyl ester]
29 | 0.00307 µM | O=C(O)Cc1ccc(OC(F)(F)F)c(-c2ccc(F)c3c2CN(C(=O)[C@@H]2C[C@H]2c2ccccc2)CC3)c1 [Example 26, {3-[5-Fluoro-2-((1R,2R)-2-phenyl-cyclopropanecarbonyl)-1,2,3,4-tetrahydro-isoquinolin-8-yl]-4-trifluoromethoxy-phenyl}-acetic acid]
30 | 0.0186 µM | COc1ccc(CC(=O)O)cc1-c1ccc(F)c2c1CN(C(=O)C1COc3ccccc3C1)CC2 (racemic) [Example 113, (±)-{3-[2-(Chroman-3-carbonyl)-5-fluoro-1,2,3,4-tetrahydro-isoquinolin-8-yl]-4-methoxy-phenyl}-acetic acid]
31 | 0.0059 µM | CCOc1ccc(CC(=O)O)cc1-c1ccc(F)c2c1CN(C(=O)OCCOC)CC2 [Example 378, 8-(5-Carboxymethyl-2-ethoxy-phenyl)-5-fluoro-3,4-dihydro-1H-isoquinoline-2-carboxylic acid 2-methoxy-ethyl ester]
32 | 0.0327 µM | COc1ccc(CC(=O)O)cc1-c1ccc(F)c2c1CN(C(=O)CC(C)c1cccnc1)CC2 (racemic) [Example 266, (±)-{3-[5-Fluoro-2-(3-pyridin-3-yl-butyryl)-1,2,3,4-tetrahydro-isoquinolin-8-yl]-4-methoxy-phenyl}-acetic acid formiate]
